This note sets out measurements from patent US12428458B2, “Therapeutic agent for psoriasis” (StemRIM Inc., priority 2018, dated 2025).

Type in all cases: in vivo, C57BL/6 mice
Test [1] concerns psoriasis model mice. As to the kind of experiment: PASI score in imiquimod-induced psoriasis model mice (Example 2). Particulars: 5 mg/kg/day i.v. for three days, up to Day 4, vs control group (saline), n=6. On the procedure:
(§1) The drugs were prepared and the psoriasis model mice were produced in the same way as Example 1. The peptides were administered in the same way as Example 1 except that the number of mice was changed to six in both the HMGB1 peptide (1-44) administration group and the control group.
The degree of the symptoms of psoriasis on the dorsal skin of the mice was evaluated by the PASI score for four days from the 1st day of the start of imiquimod application. The PASI score was calculated in the same manner as Example 1.

For test [2], the system named is psoriasis model mice. As to the kind of experiment: PASI score in imiquimod-induced psoriasis model mice (Example 1). The source says:
(§2) In order to induce psoriasis using imiquimod, a cream containing 5% imiquimod (Beselna Cream 5%, manufactured by Mochida Pharmaceutical Co., Ltd.) was used. Imiquimod is represented as IMQ in the drawings corresponding to the Examples of this application. A peptide consisting of amino acid residues 1-44 of the human-derived HMGB1 protein (SEQ ID NO: 1) was chemically synthesized by a solid-phase method. Hereinafter, the HMGB1 fragment peptide is referred to as the HMGB1 peptide (1-44) and is expressed as an abbreviation “1-44” in the drawings corresponding to the Examples.
(§3) C57BL/6 mice (7-week-old, female, body weight about 20 g) were prepared, and the hair on the back was removed. In order to induce psoriasis, the cream containing 5% imiquimod was applied to the dorsal skin of the mice at a dose of 1.25 g/animal/day (62.5 mg/animal/day as imiquimod) once a day for four days. In the following, the day when imiquimod was first applied is represented as “the 1st day of the start of imiquimod application (Day 1)”, and the next day onward is represented as “the Xth day from the start of imiquimod application (Day X)”. That is, the last day that imiquimod was applied was the 4th day from the start of imiquimod application (Day 4), and no application was performed on the 5th day from the start of imiquimod application (Day 5).
The psoriasis model mice produced as described above were divided into the HMGB1 peptide (1-44) administration group (n=3) and the control group (n=3). The test substance was administered by injecting an HMGB1 peptide (1-44) solution, which has been adjusted to a concentration of 1 μg/μl with saline as the vehicle, into the vein at a dose of 100 μl/day (5 mg/kg/day as the peptide dose) for three days from the 1st day of the start of imiquimod application (Day 1). […]
The degree of the symptoms of psoriasis on the dorsal skin of the mice was evaluated by the PASI score for five days from the 1st day of the start of imiquimod application. The PASI score was calculated by quantifying the degree of each of (a) erythema, (b) scaling (desquamation), and (c) thickening (infiltration) of skin using five stages, [no symptoms: 0 points, mild: 1 point, moderate: 2 points, severe: 3 points, and extremely severe: 4 points], and summing up the values of (a), (b), and (c) (minimum 0 points-maximum 12 points).
(a) The erythema score was determined by using the photographs of the back of mice shown in FIG. 1 as a criterion for each score and visually comparing them with the condition of the back of the mice to be evaluated. (b) The scaling score was determined by using the photographs of the back of mice shown in FIG. 2 as a criterion for each score and visually comparing them with the condition of the back of the mice to be evaluated. (c) The thickening score was determined as follows: Two measurement sites were determined on the back of the mice, the skin was pinched and its thickness was measured with a caliper, and the average value from the two sites was recorded daily as the skin thickness (mm). Quantification was carried out by giving 0 points when the value of skin thickness of each day relative to the skin thickness on the 1st day of the start of imiquimod application (before application) was less than 1.1, 1 point when the value was 1.1 or more to less than 1.3, 2 points when the value was 1.3 or more to less than 1.5, 3 points when the value was 1.5 or more to less than 1.7, and 4 points when the value was 1.7 or more.

Test [3] concerns inflammatory cytokines (IL-6, IL-17F, and IL-22). As to the kind of experiment: Expression levels of inflammatory cytokines in dorsal skin by quantitative PCR (Example 1). The conditions noted are these: mRNA, Day 5, 5 mg/kg/day i.v. for three days, vs control group.
Source text: as §2, §3
The psoriasis model mice produced as described above were divided into the HMGB1 peptide (1-44) administration group (n=3) and the control group (n=3). […]
On the 5th day from the start of imiquimod application (Day 5), the dorsal skin of the mice was collected, mRNA was extracted from the skin, and the expression levels of the inflammatory cytokines (IL-6, IL-17F, and IL-22), which are known to be involved in the pathogenesis of psoriasis, were analyzed by quantitative PCR.

For test [4], the system named is inflammatory cytokines (IL-1β, IL-6, IL-17A, IL-17F, and IL-22). As to the kind of experiment: Expression levels of inflammatory cytokines in dorsal skin by quantitative PCR (Example 2). The conditions noted are these: mRNA, Day 5, 5 mg/kg/day i.v. for three days, vs control group. As to the method: as §1
On the 5th day from the start of imiquimod application, the dorsal skin of the mice was collected, mRNA was extracted from the skin, and the expression levels of the inflammatory cytokines (IL-1β, IL-6, IL-17A, IL-17F, and IL-22), which are known to be involved in the pathogenesis of psoriasis, were analyzed by quantitative PCR.

The mark [5] stands for this setting: 5 mg/kg/day i.v. for three days, up to Day 5, vs control group.

In the case of “HMGB1 peptide (1-44): peptide consisting of amino acid residues 1-44 of the human-derived HMGB1 protein (SEQ ID NO: 1), chemically synthesized by a solid-phase method (MGKGDPKKPRGKMSSYAFFVQTCREEHKKKHPDASVNFSEFSKK)”, the PASI score entry in the test on psoriasis model mice [1] is recorded as “lower than that in the control group”. Further, the PASI score entry in the test on psoriasis model mice [2] (5 mg/kg/day i.v. for three days from Day 1, up to Day 5, vs control group (saline), n=3) is on record as “lower than those in the control group”. In the test with psoriasis model mice [2] (5 mg/kg/day i.v. for three days, Day 5, vs control group (saline), p<0.05, 5 mg/kg/day), the “PASI score on the 5th day from the start of imiquimod application” value was “significantly lower than that in the control group”. In the test on psoriasis model mice [2] (setting [5]), the erythema score entry is given as “lower than those in the control group”, the scaling score entry was “lower than those in the control group” and the thickening score result is “lower than those in the control group”. Also, in test [3], the “expression level of IL-6 in the skin” value was “lower than those in the control group”, the “expression level of IL-17F in the skin” value was “lower than those in the control group” and the “expression level of IL-22 in the skin” value was “lower than those in the control group”. For the same substance, in test [4], the “expression level of IL-1β in the skin” value is on record as “lower than those in the control group”, the “expression level of IL-6 in the skin” value is reported as “lower than those in the control group”, the “expression level of IL-17A in the skin” value is “lower than those in the control group” and the “expression level of IL-17F in the skin” value was “lower than those in the control group”. For the same substance, the “expression level of IL-22 in the skin” value in test [4] is reported as “lower than those in the control group”.
